Tests used:
CDK2/CycE = CDK2/CycE (Homo sapiens (Human), UniProt P24941); test: CDK2/CycE kinase assay (TR-FRET); assay type: biochemical; conditions: 10 μM ATP; read-out: CDK2 avg (IC50 [mol/l])
Text: CDK2/CycE-inhibitory activity of compounds of the present invention was quantified employing the CDK2/CycE TR-FRET assay as described in the following paragraphs.
Recombinant fusion proteins of GST and human CDK2 and of GST and human CycE, expressed in insect cells (Sf9) and purified by Glutathion-Sepharose affinity chromatography, were purchased from ProQinase GmbH (Freiburg, Germany). As substrate for the kinase reaction biotinylated peptide biotin-Ttds-YISPLKSPYKISEG (C-terminus in amid form) was used which can be purchased e.g. form the company JERINI peptide technologies (Berlin, Germany).
For the assay 50 nl of a 100 fold concentrated solution of the test compound in DMSO was pipetted into a black low volume 384 well microtiter plate (Greiner Bio-One, Frickenhausen, Germany), 2 μl of a solution of CDK2/CycE in aqueous assay buffer [50 mM Tris/HCl pH 8.0, 10 mM MgCl2, 1.0 mM dithiothreitol, 0.1 mM sodium ortho-vanadate, 0.01% (v/v) Nonidet-P40 (Sigma)] were added and the mixture was incubated for 15 min at 22° C. to allow pre-binding of the test compounds to the enzyme before the start of the kinase reaction. Then the kinase reaction was started by the addition of 3 μl of a solution of adenosine-tri-phosphate (ATP, 16.7 μM=>final conc. in the 5 μl assay volume is 10 μM) and substrate (1.25 μM=>final conc. in the 5 μl assay volume is 0.75 μM) in assay buffer and the resulting mixture was incubated for a reaction time of 25 min at 22° C. The concentration of CDK2/CycE was adjusted depending of the activity of the enzyme lot and was chosen appropriate to have the assay in the linear range, typical concentrations were in the range of 130 ng/ml. The reaction was stopped by the addition of 5 μl of a solution of TR-FRET detection reagents (0.2 μM streptavidine-XL665 [Cisbio Bioassays, Codolet, France] and 1 nM anti-RB(pSer807/pSer811)-antibody from BD Pharmingen [#558389] and 1.2 nM LANCE EU-W1024 labeled anti-mouse IgG antibody [Perkin-Elmer, product no. AD0077, as an alternative a Terbium-cryptate-labeled anti-mouse IgG antibody from Cisbio Bioassays can be used]) in an aqueous EDTA-solution (100 mM EDTA, 0.2% (w/v) bovine serum albumin in 100 mM HEPES/NaOH pH 7.0).
The resulting mixture was incubated 1 h at 22° C. to allow the formation of complex between the phosphorylated biotinylated peptide and the detection reagents. Subsequently the amount of phosphorylated substrate was evaluated by measurement of the resonance energy transfer from the Eu-chelate to the streptavidine-XL. Therefore, the fluorescence emissions at 620 nm and 665 nm after excitation at 350 nm was measured in a TR-FRET reader, e.g. a Rubystar (BMG Labtechnologies, Offenburg, Germany) or a Viewlux (Perkin-Elmer). The ratio of the emissions at 665 nm and at […] was taken as the measure for the amount of phosphorylated substrate. The data were normalised (enzyme reaction without inhibitor=0% inhibition, all other assay components but no enzyme=100% inhibition).

HeLa = test: Proliferation assay (crystal violet), HeLa; assay type: cell-based; conditions: Homo sapiens, 96 h, 4 days, read-out: Inhibition of proliferation IC50 HeLa
Protocol: Cultivated tumor cells (cells were ordered from ATCC, except HeLa-MaTu and HeLa-MaTu-ADR, which were ordered from EPO-GmbH, Berlin) were plated at a density of 1000 to 5000 cells/well, depending on the growth rate of the respective cell line, in a 96-well multititer plate in 200 μL of their respective growth medium supplemented 10% fetal calf serum. After 24 hours, the cells of one plate (zero-point plate) were stained with crystal violet (see below), while the medium of the other plates was replaced by fresh culture medium (200 μl), to which the test substances were added in various concentrations (0 μM, as well as in the range of 0.001-10 μM; the final concentration of the solvent dimethyl sulfoxide was 0.5%). The cells were incubated for 4 days in the presence of test substances. Cell proliferation was determined by staining the cells with crystal violet: the cells were fixed by adding 20 μl/measuring point of an 11% glutaric aldehyde solution for 15 minutes at room temperature. After three washing cycles of the fixed cells with water, the plates were dried at room temperature. The cells were stained by adding 100 μl/measuring point of a 0.1% crystal violet solution (pH 3.0). After three washing cycles of the stained cells with water, the plates were dried at room temperature. The dye was dissolved by adding 100 μl/measuring point of a 10% acetic acid solution. Absorption was determined by photometry at a wavelength of 595 nm. The change of cell number, in percent, was calculated by normalization of the measured values to the absorption values of the zero-point plate (=0%) and the absorption of the untreated (0 μm) cells (=100%). The IC50 values were determined by means of a 4 parameter fit.

Row | IC50 (CDK2/CycE) [µM] | IC50 (HeLa) [nM] | Structure (SMILES)
1 | > 20 | 10000 | CCOC(=O)c1coc(Nc2snc(C)c2C(=O)Nc2ccc(OC)nc2)n1 [Example 100, Ethyl 2-({4-[(6-methoxypyridin-3-yl)carbamoyl]-3 methyl-1,2-thiazol-5-yl}amino)-1,3-oxazole-4-carboxylate]
2 | > 20 | 3300 | COc1ncc(NC(=O)c2c(C)nsc2Nc2cnc3ccccc3n2)cc1C [Example 121, N-(6-Methoxy-5-methylpyridin-3-yl)-3-methyl-5-(quinoxalin-2-ylamino)-1,2-thiazole-4-carboxamide]
3 | > 20 | 2900 | Cc1nsc(Nc2ccn3nccc3n2)c1C(=O)Nc1ccc(F)c(F)c1 [Example 57, N-(3,4-Difluorophenyl)-3-methyl-5-(pyrazolo[1,5-a]pyrimidin-5-ylamino)-1,2-thiazole-4-carboxamide]
4 | > 20 | 3200 | COc1ccc(Oc2ccc(NC(=O)c3c(C)nsc3Nc3cc(C#N)ccn3)cn2)cc1 [Example 117, 5-[(4-Cyanopyridin-2-yl)amino]-N-[6-(4-methoxyphenoxy)pyridin-3-yl]-3-methyl-1,2-thiazole-4-carboxamide]
5 | > 20 | 3300 | CCOc1ccc(NC(=O)c2c(C)nsc2Nc2cnc3ccccc3n2)cn1 [Example 119, N-(6-Ethoxypyridin-3-yl)-3-methyl-5-(quinoxalin-2-ylamino)-1,2-thiazole-4-carboxamide]
6 | > 20 | 1300 | Cc1nsc(Nc2cnc3ccccc3n2)c1C(=O)Nc1ccc(OC2CCCCC2)nc1 [Example 115, N-[6-(Cyclohexyloxy)pyridin-3-yl]-3-methyl-5-(quinoxalin-2-ylamino)-1,2-thiazole-4-carboxamide]
7 | > 20 | 800 | Cc1nsc(Nc2cc(C#N)ccn2)c1C(=O)Nc1ccc(Cl)c(F)c1 [Example 54, N-(4-Chloro-3-fluorophenyl)-5-[(4-cyanopyridin-2-yl)amino]-3-methyl-1,2-thiazole-4-carboxamide]
8 | > 20 | 240 | Cc1nsc(Nc2ccc(C#N)cn2)c1C(=O)Nc1ccc(Cl)c(F)c1 [Example 52, N-(4-Chloro-3-fluorophenyl)-5-[(5-cyanopyridin-2-yl)amino]-3-methyl-1,2-thiazole-4-carboxamide]
9 | > 20 | 7200 | COC(=O)c1cncc(Nc2snc(C)c2C(=O)Nc2ccc(OC)nc2)n1 [Example 101, Methyl 6-({4-[(6-methoxypyridin-3-yl)carbamoyl]-3-methyl-1,2-thiazol-5-yl}amino)pyrazine-2-carboxylate]
10 | > 20 | 450 | Cc1nsc(Nc2cnc3ccccc3n2)c1C(=O)Nc1ccc(F)c(F)c1 [Example 50, N-(3,4-Difluorophenyl)-3-methyl-5-(quinoxalin-2-ylamino)-1,2-thiazole-4-carboxamide]
11 | > 20 | 920 | CCOC(=O)c1cnn2ccc(Nc3snc(C)c3C(=O)Nc3ccc(F)c(F)c3)nc12 [Example 55, Ethyl 5-({4-[(3,4-difluorophenyl)carbamoyl]-3-methyl-1,2-thiazol-5-yl}amino)-pyrazolo[1,5-a]pyrimidine-3-carboxylate]
12 | > 20 | 570 | Cc1nsc(Nc2nc3c(C(F)(F)F)cccc3s2)c1C(=O)Nc1ccc(F)c(F)c1 [Example 51, N-(3,4-Difluorophenyl)-3-methyl-5-{[4-(trifluoromethyl)-1,3-benzothiazol-2-yl]-amino}-1,2-thiazole-4-carboxamide]

The next lines start with the molecule.

Row | Structure (SMILES) | IC50 (CDK2/CycE) [µM] | IC50 (HeLa) [nM]
13 | CCc1ccccc1NC(=O)c1c(C)nsc1Nc1ncnc2ccccc12 [Example 10, N-(2-Ethylphenyl)-3-methyl-5-(quinazolin-4-ylamino)-1,2-thiazole-4-carboxamide] | > 20 | 7200
14 | CCc1ccccc1NC(=O)c1c(C)nsc1Nc1nc2ccccc2s1 [Example 14, 5-(1,3-Benzothiazol-2-ylamino)-N-(2-ethylphenyl)-3-methyl-1,2-thiazole-4-carboxamide] | > 20 | 1000
15 | CCc1ccccc1NC(=O)c1c(C)nsc1Nc1nc(C)nc2ccccc12 [Example 35, N-(2-Ethylphenyl)-3-methyl-5-[(2-methylquinazolin-4-yl)amino]-1,2-thiazole-4-carboxamide] | > 20 | 1200
16 | COc1ccc(NC(=O)c2c(C)nsc2Nc2nc3c(C(F)(F)F)cccc3s2)cc1F [Example 47, N-(3-Fluoro-4-methoxyphenyl)-3-methyl-5-{[4-(trifluoromethyl)-1,3-benzothiazol-2-yl]amino}-1,2-thiazole-4-carboxamide] | > 20 | 370
17 | CCc1ccccc1NC(=O)c1c(C)nsc1Nc1cc(-n2ccnc2)ncn1 [Example 9, N-(2-Ethylphenyl)-5-{[6-(1H-imidazol-1-yl)pyrimidin-4-yl]amino}-3-methyl-1,2-thiazole-4-carboxamide] | > 20 | 2400
18 | CCc1ccccc1NC(=O)c1c(C)nsc1Nc1nc2ccccc2nc1C [Example 21, N-(2-Ethylphenyl)-3-methyl-5-[(3-methylquinoxalin-2-yl)amino]-1,2-thiazole-4-carboxamide] | > 20 | > 10000
19 | CCc1ccccc1NC(=O)c1c(C)nsc1Nc1nccc(OC)n1 [Example 16, N-(2-Ethylphenyl)-5-[(4-methoxypyrimidin-2-yl)amino]-3-methyl-1,2-thiazole-4-carboxamide] | > 20 | > 10000
20 | CCc1ccccc1NC(=O)c1c(C)nsc1Nc1cc(NC)ncn1 [Example 15, N-(2-Ethylphenyl)-3-methyl-5-{[6-(methylamino)pyrimidin-4-yl]amino}-1,2-thiazole-4-carboxamide] | > 20 | > 10000
21 | COc1ccc(NC(=O)c2c(C)nsc2Nc2nccnc2C#N)cn1 [Example 24, 5-[(3-Cyanopyrazin-2-yl)amino]-N-(6-methoxypyridin-3-yl)-3-methyl-1,2-thiazole-4-carboxamide] | > 20 | > 10000
22 | CCOC(=O)c1sc(Nc2snc(C)c2C(=O)Nc2ccc(OC)nc2)nc1C [Example 30, Ethyl 2-({4-[(6-methoxypyridin-3-yl)carbamoyl]-3-methyl-1,2-thiazol-5-yl}amino)-4-methyl-1,3-thiazole-5-carboxylate] | > 20 | 1600
23 | CCOC(=O)c1cnc(Nc2snc(C)c2C(=O)Nc2ccc(OC)nc2)s1 [Example 29, Ethyl 2-({4-[(6-methoxypyridin-3-yl)carbamoyl]-3-methyl-1,2-thiazol-5-yl}amino)-1,3-thiazole-5-carboxylate] | > 20 | 2800
24 | CCc1ccccc1NC(=O)c1c(C)nsc1Nc1nccnc1C#N [Example 34, 5-[(3-Cyanopyrazin-2-yl)amino]-N-(2-ethylphenyl)-3-methyl-1,2-thiazole-4-carboxamide] | > 20 | 6700
